What is called Ki is the equilibrium dissociation constant of an inhibitor or competing ligand from its target.

Some results are limits rather than exact numbers.

Experimental findings from patent US20250122183A1 (Pfizer Inc., priority 2023, published 2025) are described below.

The target of experiment [1] is KAT6A Full length enzyme (Homo sapiens (Human), UniProt Q92794). The experiment is described as follows: KAT6A assay (SAMDI-MS acetylation of H3 1-21 peptide). To be noted: Morrison equation fit; replicate number in parentheses; read-out: KAT6A Ki (nM) (replicate number). It counts as biochemical.
KAT6A Full length enzyme, sequence (Q92794 other isoform, or with tags, fused parts or gaps): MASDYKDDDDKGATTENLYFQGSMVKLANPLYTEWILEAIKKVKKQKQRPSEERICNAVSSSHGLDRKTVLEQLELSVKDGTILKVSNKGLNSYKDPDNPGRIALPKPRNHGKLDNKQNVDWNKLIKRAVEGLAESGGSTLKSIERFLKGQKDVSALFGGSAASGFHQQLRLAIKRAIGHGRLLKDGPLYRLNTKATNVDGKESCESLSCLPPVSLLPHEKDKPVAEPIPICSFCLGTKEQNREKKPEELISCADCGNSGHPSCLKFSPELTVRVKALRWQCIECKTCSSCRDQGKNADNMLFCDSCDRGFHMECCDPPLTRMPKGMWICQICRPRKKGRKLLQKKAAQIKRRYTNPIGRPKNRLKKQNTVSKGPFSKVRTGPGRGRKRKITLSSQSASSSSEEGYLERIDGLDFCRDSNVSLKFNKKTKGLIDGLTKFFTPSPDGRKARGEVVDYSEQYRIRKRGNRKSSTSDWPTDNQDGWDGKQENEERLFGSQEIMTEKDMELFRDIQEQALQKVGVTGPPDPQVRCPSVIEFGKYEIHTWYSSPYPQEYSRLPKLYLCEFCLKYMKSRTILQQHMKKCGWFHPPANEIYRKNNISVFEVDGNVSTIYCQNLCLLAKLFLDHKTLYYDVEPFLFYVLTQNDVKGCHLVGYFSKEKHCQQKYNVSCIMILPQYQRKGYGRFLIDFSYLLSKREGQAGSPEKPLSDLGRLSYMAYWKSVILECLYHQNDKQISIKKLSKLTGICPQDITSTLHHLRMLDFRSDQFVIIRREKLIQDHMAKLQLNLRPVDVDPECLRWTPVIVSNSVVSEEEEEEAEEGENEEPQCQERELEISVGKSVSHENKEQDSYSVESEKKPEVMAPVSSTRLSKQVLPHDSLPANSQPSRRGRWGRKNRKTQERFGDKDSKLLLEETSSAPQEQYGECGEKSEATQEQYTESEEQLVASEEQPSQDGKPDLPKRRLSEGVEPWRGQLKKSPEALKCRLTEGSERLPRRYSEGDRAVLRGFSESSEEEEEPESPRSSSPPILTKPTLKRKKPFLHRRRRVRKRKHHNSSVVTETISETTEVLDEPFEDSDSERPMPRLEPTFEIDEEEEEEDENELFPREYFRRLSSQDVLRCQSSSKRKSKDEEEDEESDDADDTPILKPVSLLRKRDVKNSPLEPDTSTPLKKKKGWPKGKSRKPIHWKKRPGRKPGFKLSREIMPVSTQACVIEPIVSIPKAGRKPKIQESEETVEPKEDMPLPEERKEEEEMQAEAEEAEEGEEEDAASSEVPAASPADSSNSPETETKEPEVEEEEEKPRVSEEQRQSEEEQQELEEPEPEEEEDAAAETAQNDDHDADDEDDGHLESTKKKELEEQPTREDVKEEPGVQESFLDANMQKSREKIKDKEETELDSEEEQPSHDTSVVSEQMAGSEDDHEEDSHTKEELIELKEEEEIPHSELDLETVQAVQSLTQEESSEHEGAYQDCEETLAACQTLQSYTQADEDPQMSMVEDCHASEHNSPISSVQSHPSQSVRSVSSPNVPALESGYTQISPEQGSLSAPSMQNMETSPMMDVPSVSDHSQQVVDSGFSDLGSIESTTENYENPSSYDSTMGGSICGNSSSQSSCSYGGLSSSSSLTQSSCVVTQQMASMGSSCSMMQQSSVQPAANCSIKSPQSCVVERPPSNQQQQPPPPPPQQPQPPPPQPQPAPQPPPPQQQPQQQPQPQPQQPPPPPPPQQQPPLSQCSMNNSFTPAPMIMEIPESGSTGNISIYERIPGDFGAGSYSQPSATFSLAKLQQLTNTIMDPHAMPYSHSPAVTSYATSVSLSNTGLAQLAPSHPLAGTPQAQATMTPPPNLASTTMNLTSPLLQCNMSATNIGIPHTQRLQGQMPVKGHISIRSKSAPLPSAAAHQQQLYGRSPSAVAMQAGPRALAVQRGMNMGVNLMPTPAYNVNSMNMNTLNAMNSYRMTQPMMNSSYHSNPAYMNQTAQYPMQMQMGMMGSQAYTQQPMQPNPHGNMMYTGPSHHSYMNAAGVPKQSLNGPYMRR
Experiment [2] has as its target KAT7+JADE1+EAF6+ING5 4 protein complex (Homo sapiens (Human), UniProt O95251). The experiment is described as follows: KAT7 JADE1 assay (SAMDI-MS acetylation of H3 1-21 peptide). As to conditions: Morrison equation fit; replicate number in parentheses; read-out: KAT7 JADE1 Ki (nM) (replicate number). It counts as biochemical.

With `COc1cc2c(NS(=O)(=O)c3c(OC)cc(C4CN(C5CCOC5)C4)cc3OC)noc2cc1Nc1cc(C2CC2)n[nH]1` (racemic) [Example 187, N-{6-[(3-cyclopropyl-1H-pyrazol-5-yl)amino]-5-methoxy-1,2-benzoxazol-3-yl]-2,6-dimethoxy-4-[1-(oxolan-3-yl)azetidin-3-yl]benzene-1-sulfonamide], the Ki in experiment [1] was found to be 2.2 nM; in experiment [2], 13.1 nM.

Consider `COc1cc2c(NS(=O)(=O)c3c(OC)cc(C4CCCCO4)cc3OC)noc2cc1Nc1cc(C2CC2)n[nH]1` (single isomer, unassigned) [Example 142, N-{6-[(3-cyclopropyl-1 H-pyrazol-5-yl)amino]-5-methoxy-1,2-benzoxazol-3-yl}-2,6-dimethoxy-4-(oxan-2-yl)benzene-1-sulfonamide], for which the Ki in experiment [1] turned out to be 0.7 nM; in experiment [2], 6.7 nM.

`COc1cc2c(NS(=O)(=O)c3c(OC)cc(C4CCN(C)C4)cc3OC)noc2cc1Nc1cc(C2CC2)n[nH]1` (single isomer, unassigned) [Example 147, N-{6-[(3-cyclopropyl-1 H-pyrazol-5-yl)amino]-5-methoxy-1,2-benzoxazol-3-yl}-2,6-dimethoxy-4-(1-methylpyrrolidin-3-yl)benzene-1-sulfonamide]: the Ki was 1.6 nM in experiment [1] and 12.1 nM in experiment [2]. In the case of `CCN1CCOC(c2cc(OC)c(S(=O)(=O)Nc3noc4cc(Nc5cc(C6CC6)n[nH]5)c(OC)cc34)c(OC)c2)C1` (single isomer, unassigned) [Example 156, N-{6-[(3-cyclopropyl-1 H-pyrazol-5-yl)amino]-5-methoxy-1,2-benzoxazol-3-yl}-4-(4-ethylmorpholin-2-yl)-2,6-dimethoxybenzene-1-sulfonamide], the values for the Ki in experiment [1] and in experiment [2] were 0.8 nM and 4 nM, respectively. For the compound `CCN1CCOC(c2cc(OC)c(S(=O)(=O)Nc3noc4cc(Nc5cc(C6CC6)n[nH]5)c(OC)cc34)c(OC)c2)C1` (single isomer, unassigned) [Example 157, N-{6-[(3-cyclopropyl-1 H-pyrazol-5-yl)amino]-5-methoxy-1,2-benzoxazol-3-yl}-4-(4-ethylmorpholin-2-yl)-2,6-dimethoxybenzene-1-sulfonamide], the Ki in experiment [1] was found to be 2.5 nM; in experiment [2] it was 11.6 nM. Consider `COc1cc2c(NS(=O)(=O)c3c(OC)cc(C4CCCN([C@@H]5CCOC5)C4)cc3OC)noc2cc1Nc1cc(C2CC2)n[nH]1` (single isomer, unassigned) [Example 158], for which the figures for the Ki in experiment [1] and in experiment [2] were 1.2 nM and 8.7 nM, respectively.

`COc1cc2c(NS(=O)(=O)c3c(OC)cc(C4CCCN([C@@H]5CCOC5)C4)cc3OC)noc2cc1Nc1cc(C2CC2)n[nH]1` (single isomer, unassigned) [Example 159]: the Ki is 1.1 nM in experiment [1] and 7 nM in experiment [2]. As to `COc1cc2c(NS(=O)(=O)c3c(OC)cc(C4CCN([C@@H]5CCOC5)C4)cc3OC)noc2cc1Nc1cc(C2CC2)n[nH]1` (single isomer, unassigned) [Example 160], the Ki in experiment [1] is 1 nM; in experiment [2], 6.9 nM.

`COc1cc2c(NS(=O)(=O)c3c(OC)cc(C4CCN([C@@H]5CCOC5)C4)cc3OC)noc2cc1Nc1cc(C2CC2)n[nH]1` (single isomer, unassigned) [Example 161]: the figures for the Ki in experiment [1] and in experiment [2] were 1.2 nM and 5.5 nM, respectively. `COc1cc2c(NS(=O)(=O)c3c(OC)cc(C4CCN([C@H]5CCOC5)C4)cc3OC)noc2cc1Nc1cc(C2CC2)n[nH]1` (single isomer, unassigned) [Example 162]: the inhibition constant Ki in experiment [1] was 1.2 nM; in experiment [2], 8.9 nM.

Turning to `COc1cc2c(NS(=O)(=O)c3c(OC)cc(C4CCN([C@H]5CCOC5)C4)cc3OC)noc2cc1Nc1cc(C2CC2)n[nH]1` (single isomer, unassigned) [Example 163], the Ki was 1.4 nM in experiment [1] and 8.2 nM in experiment [2].

Turning to `COc1cc2c(NS(=O)(=O)c3c(OC)cc(C4CCCN4CC(F)F)cc3OC)noc2cc1Nc1cc(C2CC2)n[nH]1` (single isomer, unassigned) [Example 165, N-{6-[(3-cyclopropyl-1H-pyrazol-5-yl)amino]-5-methoxy-1,2-benzoxazol-3-yl}-4-[1-(2,2-difluoroethyl)pyrrolidin-2-yl]-2,6-dimethoxybenzene-1-sulfonamide], the Ki in experiment [1] turned out to be 1.4 nM; in experiment [2], 5 nM. On the same counts, the results for `COc1cc2c(NS(=O)(=O)c3c(OC)cc(C4CCCN4CC(F)F)cc3OC)noc2cc1Nc1cc(C2CC2)n[nH]1` (single isomer, unassigned) [Example 166, N-{6-[(3-cyclopropyl-1 H-pyrazol-5-yl)amino]-5-methoxy-1,2-benzoxazol-3-yl}-4-[1-(2,2-difluoroethyl)pyrrolidin-2-yl]-2,6-dimethoxybenzene-1-sulfonamide] are 1.6 nM and 8.5 nM.

Turning to `COc1cc2c(NS(=O)(=O)c3c(OC)cc(C4CCCN(CC(F)F)C4)cc3OC)noc2cc1Nc1cc(C2CC2)n[nH]1` (single isomer, unassigned) [Example 167, N-{6-[(3-cyclopropyl-1 H-pyrazol-5-yl)amino]-5-methoxy-1,2-benzoxazol-3-yl}-4-[1-(2,2-difluoroethyl)piperidin-3-yl]-2,6-dimethoxybenzene-1-sulfonamide], the Ki in experiment [1] is 0.9 nM; in experiment [2] it was 4 nM. For `COc1cc2c(NS(=O)(=O)c3c(OC)cc(C4CCCN(CC(F)F)C4)cc3OC)noc2cc1Nc1cc(C2CC2)n[nH]1` (single isomer, unassigned) [Example 168, N-{6-[(3-cyclopropyl-1 H-pyrazol-5-yl)amino]-5-methoxy-1,2-benzoxazol-3-yl}-4-[1-(2,2-difluoroethyl)piperidin-3-yl]-2,6-dimethoxybenzene-1-sulfonamide], in that order: 0.8 nM and 2.7 nM.

As to `COc1cc2c(NS(=O)(=O)c3c(OC)cc(C4CCCN(CC(F)(F)F)C4)cc3OC)noc2cc1Nc1cc(C2CC2)n[nH]1` (single isomer, unassigned) [Example 169, N-{6-[(3-cyclopropyl-1 H-pyrazol-5-yl)amino]-5-methoxy-1,2-benzoxazol-3-yl}-2,6-dimethoxy-4-[1-(2,2,2-trifluoroethyl)piperidin-3-yl]benzene-1-sulfonamide], the Ki in experiment [1] stood at 0.5 nM. For `COc1cc2c(NS(=O)(=O)c3c(OC)cc(C4CCCN(CC(F)(F)F)C4)cc3OC)noc2cc1Nc1cc(C2CC2)n[nH]1` (single isomer, unassigned) [Example 170, N-{6-[(3-cyclopropyl-1 H-pyrazol-5-yl)amino]-5-methoxy-1,2-benzoxazol-3-yl}-2,6-dimethoxy-4-[1-(2,2,2-trifluoroethyl)piperidin-3-yl]benzene-1-sulfonamide], in experiment [1], the Ki was 0.4 nM.

For `COc1cc2c(NS(=O)(=O)c3c(OC)cc(C4CCCCN4C)cc3OC)noc2cc1Nc1cc(C2CC2)n[nH]1` (single isomer, unassigned) [Example 171, N-{6-[(3-cyclopropyl-1 H-pyrazol-5-yl)amino]-5-methoxy-1,2-benzoxazol-3-yl}-2,6-dimethoxy-4-(1-methylpiperidin-2-yl)benzene-1-sulfonamide], the inhibitory constant (Ki) amounted to 2.1 nM in experiment [1] and 8.4 nM in experiment [2]. Consider `COc1cc2c(NS(=O)(=O)c3c(OC)cc(C4CCCCN4C)cc3OC)noc2cc1Nc1cc(C2CC2)n[nH]1` (single isomer, unassigned) [Example 172, N-{6-[(3-cyclopropyl-1 H-pyrazol-5-yl)amino]-5-methoxy-1,2-benzoxazol-3-yl}-2,6-dimethoxy-4-(1-methylpiperidin-2-yl)benzene-1-sulfonamide], for which the inhibition constant Ki in experiment [1] worked out at 4.4 nM; in experiment [2], 34.1 nM. As to `CCN1CCCCC1c1cc(OC)c(S(=O)(=O)Nc2noc3cc(Nc4cc(C5CC5)n[nH]4)c(OC)cc23)c(OC)c1` (single isomer, unassigned) [Example 173, N-{6-[(3-cyclopropyl-1 H-pyrazol-5-yl)amino]-5-methoxy-1,2-benzoxazol-3-yl}-4-(1-ethylpiperidin-2-yl)-2,6-dimethoxybenzene-1-sulfonamide], the figures for the Ki in experiment [1] and in experiment [2] were 7.5 nM and 114 nM, respectively. On the same counts, the results for `CCN1CCCCC1c1cc(OC)c(S(=O)(=O)Nc2noc3cc(Nc4cc(C5CC5)n[nH]4)c(OC)cc23)c(OC)c1` (single isomer, unassigned) [Example 174, N-{6-[(3-cyclopropyl-1 H-pyrazol-5-yl)amino]-5-methoxy-1,2-benzoxazol-3-yl}-4-(1-ethylpiperidin-2-yl)-2,6-dimethoxybenzene-1-sulfonamide] are 4.4 nM and 27.3 nM. For `COc1cc2c(NS(=O)(=O)c3c(OC)cc(C4CN(C)CCC4(F)F)cc3OC)noc2cc1Nc1cc(C2CC2)n[nH]1` (single isomer, unassigned) [Example 175, N-{6-[(3-cyclopropyl-1 H-pyrazol-5-yl)amino]-5-methoxy-1,2-benzoxazol-3-yl}-4-(4,4-difluoro-1-methylpiperidin-3-yl)-2,6-dimethoxybenzene-1-sulfonamide], the Ki in experiment [1] came out at 0.4 nM; in experiment [2] it was 1 nM. On the same counts, the results for `COc1cc2c(NS(=O)(=O)c3c(OC)cc(C4COCCN4C)cc3OC)noc2cc1Nc1cc(C2CC2)[nH]n1` (single isomer, unassigned) [Example 179, N-{6-[(5-cyclopropyl-1 H-pyrazol-3-yl)amino]-5-methoxy-1,2-benzoxazol-3-yl}-2,6-dimethoxy-4-(4-methylmorpholin-3-yl)benzene-1-sulfonamide] are 1 nM and 8.6 nM.

Regarding `COc1cc2c(NS(=O)(=O)c3c(OC)cccc3OC)noc2cc1Nc1cc(C2CC2)nn1C` [Example 48, N-{6-[(3-cyclopropyl-1-methyl-1H-pyrazol-5-yl)amino]-5-methoxy-1,2-benzoxazol-3-yl}-2,6-dimethoxybenzene-1-sulfonamide], in experiment [2], the inhibitory constant (Ki) is over 12500 nM.
